According to article PMC5913645, “Methyl phenlactonoates are efficient strigolactone analogs with simple structure” (Journal of Experimental Botany, 2017):

Legend:
[1] = Chemical stability in aqueous solution (UHPLC); format: physicochemical; conditions: aqueous solution pH 6.8, 21 °C, 50 μg ml^−1, monitored at 24 h intervals up to 3 weeks
Description: Aqueous solutions of MPs (50 μg ml^−1; pH 6.8) were incubated at 21 °C in amber HPLC vials (adapted from [de Saint Germain et al., 2016]). For sample preparation, 50 μl of an acetone solution (1 mg ml^−1) was diluted to the final concentration with methanol (425 μl), water (500 μl) and 25 μl of 1-indanol (1.0 mg ml^−1 solution in acetone) as internal standard. […] Compounds eluted from the column were detected with a diode array detector. The relative quantity of remaining (non-degraded) product was determined by comparison with the internal standard. Stability was monitored at 24 h intervals up to 3 weeks.

OsD14 = target: T1, OsD14 (Oryza sativa subsp. japonica, UniProt Q10QA5); test: In vitro hydrolysis assay, OsD14; format: biochemical, rice; conditions: 10 µM substrate, 50 µg ml^−1 protein, 37 °C, HPLC
T1 construct: made in house; host or cells: E. coli BL21 (DE3)
T1 sequence (Q10QA5 1-318): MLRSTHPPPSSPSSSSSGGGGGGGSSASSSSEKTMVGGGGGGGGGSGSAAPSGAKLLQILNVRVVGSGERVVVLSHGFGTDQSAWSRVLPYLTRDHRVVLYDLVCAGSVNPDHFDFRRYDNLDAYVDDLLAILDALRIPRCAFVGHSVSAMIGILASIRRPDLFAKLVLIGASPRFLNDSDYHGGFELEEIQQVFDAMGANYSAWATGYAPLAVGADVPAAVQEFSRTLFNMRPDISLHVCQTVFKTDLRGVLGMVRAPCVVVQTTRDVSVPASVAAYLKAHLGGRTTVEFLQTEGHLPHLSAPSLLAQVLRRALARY
Source text: Striga hermonthica ShHTL7 cDNA was used, GenBank accession KR013127, kindly provided by Tsuyoshi Ota, The University of Tokyo, Japan. Arabidopsis D14 (AtD14) cDNA, GenBank accession AY097402, was synthesized and cloned into pUC57 (GenScript). ShHTL7 and OsD14 cDNAs were amplified by RT-PCR using the primers shown in Supplementary Table S2, digested with BamHI and XhoI, and ligated into BamHI/XhoI-digested pGEX-6P-1 expression vector (GE Healthcare). Integrity of plasmids was confirmed by sequencing (KAUST Bioscience Core Lab). The plasmids were then transformed into E. coli BL21 (DE3) cells. The cells were grown in LB broth containing ampicillin ([…]), incubated at 37 °C until OD600 of 0.6 and induced with 0.1 mM isopropyl-β-D-thiogalactopyranoside at 16 °C for 16 h. Harvested cells were resuspended in lysis buffer: 50 mM Tris–HCl (pH 8.0), 200 mM NaCl, 0.5% Tween-20 and 2 mM dithiothreitol (DTT). After sonication on ice for 10 min, the lysate was centrifuged at 75 000 g for 30 min at 4 °C. Supernatant was allowed to bind to glutathione–sepharose beads (GE Healthcare) for 2 h at 4 °C, washed 3 times with buffer (50 mM Tris-HCl (pH 8.0), 200 mM NaCl, 2 mM DTT), and eluted by cleaving the GST moiety with PreScission™ Protease (GE Healthcare) at 4 °C overnight. Eluted protein was further purified by gel filtration using a HiLoad 16/60 Superdex200 prep grade column (GE Healthcare) on an AKTA prime system (GE Healthcare) in gel filtration buffer (10 mM HEPES pH 7.5, 50 mM KCl and 2 mM DTT). Protein eluted as a sharp single peak and purity was judged by 4–15% SDS-PAGE (Bio-Rad). Purified protein was concentrated using an Amicon 10K filter unit (Merck Millipore) and stored at −80 °C until use. A similar expression and purification protocol was followed for OsD14 protein, except that OsD14 was eluted from glutathione resins using 0.2 mM reduced glutathione (Sigma-Aldrich) without cutting the GST tag.
The hydrolysis of GR24 and MPs by ShHTL7/OsD14 was performed in a total volume of 0.5 ml of phosphate-buffered saline containing 10 µM of substrate. Purified ShHTL7/OsD14 was added at a concentration of 50 µg ml^−1 and incubated for the indicated time at 37 °C. After adding 1-indanol (10 µl of a 2.5 mg ml^−1 solution in methanol), as internal standard, solutions were filtered and transferred to HPLC vials. Hydrolysis of substrates was monitored by HPLC analysis using a Zorbax Eclipse Plus C18 column (3.5 µm, 2.1 × 150 mm), eluted by a gradient from 10% to 90% acetonitrile in water within 15 min, keeping the final condition for 4 min. […] Eluted compounds were detected using a diode array detector. Amounts of remaining substrates were determined by calculating corresponding peaks, in comparison with an internal standard.

rice leaf segments = test: Dark-induced leaf senescence; design: species or system O. sativa, var. Shiokari; conditions: for transcript level of senescence-associated gene Osl20 / transcript level of senescence-associated gene Osl295: after 5 d of treatment; for change in color of leaf segments, earlier than the control / chlorophyll content of leaf segments / ion leakage of leaf segments compared with the control: dark; for change in color of leaf segments, earlier than the control: 30 °C, change on the third day after treatment; for chlorophyll content of leaf segments: on the third day; for ion leakage of leaf segments compared with the control: sixth and seventh day, no difference in the first 5 d
Description: One-week-old rice (O. sativa, var. Shiokari) seedlings were established as mentioned above. Uniform seedlings were transferred to 50 ml tubes containing half-strength Hoagland nutrient solution for 7 d and grown in an incubator under white fluorescent light (130–180 μmol m^−2 s^−1) with 16 h/8 h (L/D) at 28 °C for 1 week. Leaf segments of 2 cm were cut from middle part of third leaves of rice plants. Each segment was put in a well (in 24-well plates) containing 2 ml of 2.5 mM MES buffer with 0.05% Tween-20, and incubated at 30 °C in the dark for 7 d. After application of MPs, color change, chlorophyll content, ion leakage, and gene expression were monitored daily for 7 d.

Compound	stability in comparison with GR24 [1]	hydrolysis rate by OsD14 (rank order) (OsD14)	transcript level of senescence-associated gene Osl20 (rice leaf segments)	transcript level of senescence-associated gene Osl295 (rice leaf segments)	change in color of leaf segments, earlier than the control (rice leaf segments)	chlorophyll content of leaf segments (rice leaf segments)	ion leakage of leaf segments compared with the control (rice leaf segments)
COC(=O)/C(=C/OC1C=C(C)C(=O)O1)c1ccc(Cl)cc1 (centres unmarked) [MP7]	more stable than GR24	highest hydrolysis rate with MP1, followed by MP7, GR24, and finally MP3	–	–	–	–	–
COC(=O)/C(=C/OC1C=C(C)C(=O)O1)c1ccccc1 (centres unmarked) [MP3, (E)-methyl 3-(4-methyl-5-oxo-2,5-dihydrofuran-2-yloxy)-2-phenylacrylate]	more stable than GR24	highest hydrolysis rate with MP1, followed by MP7, GR24, and finally MP3	striking increase in their transcripts, which was more pronounced	striking increase in their transcripts, which was more pronounced	about 2 d	clear reduction	striking increase
COC(=O)/C(=C/OC1C=C(C)C(=O)O1)c1ccc([N+](=O)[O-])cc1 (centres unmarked) [MP1, (E)-methyl 3-(4-methyl-5-oxo-2,5-dihydrofuran-2-yloxy)-2-(4-nitrophenyl)acrylate]	slightly less stable than GR24	highest hydrolysis rate with MP1, followed by MP7, GR24, and finally MP3	–	–	–	–	–
CC1=CC(OC=C2C(=O)OC3c4ccccc4CC23)OC1=O (centres unmarked) [GR24, reference compound]	–	highest hydrolysis rate with MP1, followed by MP7, GR24, and finally MP3	striking increase	striking increase	about 2 d	clear reduction	striking increase
